Measurements from publication PMC6478823, “A suite of phenotypic assays to ensure pipeline diversity when prioritizing drug-like Cryptosporidium growth inhibitors” (Nature Communications, 2019).
Where “and” joins values, the source holds several entries; their conditions need not be identical. Equal values may be shown once. Read-outs that look alike come from different tables or passages of the source.

Columns and labels:
C. parvum [1] = assay: Egress, motility, reinvasion assay (PV ratio); details: compound at EC90; for Egress and Reinvasion Assay: Mean PV ratios (19.5h:6h), Average: average of replicates; for Egress and Reinvasion Assay: Mean PV ratios (19.5h:6h), Replicate 1a: single replicate 1; for Egress and Reinvasion Assay: Mean PV ratios (19.5h:6h), Replicate 2a: single replicate 2; for Egress and Reinvasion Assay: Mean PV ratios (19.5h:6h), Replicate 3a: single replicate 3; for Egress and Reinvasion Assay: Mean PV ratios (19.5h:6h), Replicate 4a: single replicate 4
Procedure: For quantification of parasitophorous vacuoles over time, HCT-8 cells were grown to greater than 90% confluence in 384-well plates and infected with 11,000 oocysts after triggering excystation.

[2] = tested on: C. parvum DMC1 expression; assay: Sexual differentiation assay (DMC1 expression); assay type: cell-based, Cryptosporidium parvum; details: for Asexual to sexual differentiation: Mean % DMC1 inhibition (normalized to host nuclei), Average: average of replicates; for Asexual to sexual differentiation: Mean % DMC1 inhibition (normalized to host nuclei), Replicate 1a: single replicate 1; for Asexual to sexual differentiation: Mean % DMC1 inhibition (normalized to host nuclei), Replicate 2a: single replicate 2; for 48 - 72 h DMC1 (asexual to sexual conversion): Mean % DMC1 inhibition (normalized to host nuclei): replicates 1-2; for Asexual to sexual differentiation: Mean % DMC1 inhibition (normalized to host nuclei), Replicate 3a: single replicate 3
Summary of the method: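 Compounds applied at their previously determined asexual-assay EC90, and % inhibition of DMC1 expression reported. Readout: 4% paraformaldehyde fixation, immunostaining with mAb 1H10G7 plus fluorescein-lectin and Hoechst, tiled 20× imaging in 384-well format, ImageJ analysis counting lectin-positive then DMC1-positive parasites.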

C. parvum [3] = assay: 48 h Cryptosporidium growth inhibition assay; assay type: cell-based, Cryptosporidium parvum; details: for EC90: compound added 3 h post-infection, read at 48 h; for 0 - 48 h V. villosa lectin (asexual): Mean % Inhibition (parasites): replicates 1-2
Summary of the method: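 EC50 and EC90 came from automated fluorescence imaging counts of parasitophorous vacuoles (Vicia villosa lectin stain), with Hoechst-stained host nuclei tracked alongside. The compound was present from 3 h to 48 h after infecting confluent HCT-8 cells with 5500 excysted C. parvum (Iowa) oocysts per well, at 37 °C.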

[4] = compound at asexual EC90, 48-72 h
[5] = read-out: Regular 3 to 48 h assay in vitro EC90, C. parvum in HCT-8 cells
[6] = Cryptosporidium parvum, HCT-8, read-out: Regular 3 to 48 h assay in vitro EC90, C. parvum in HCT-8 cells
[7] = B-1 at log[MMV006169] (µM) 0.22
[8] = B-1 at log[MMV006169] (µM) 0.52
[9] = B-1 at log[MMV006169] (µM) 1.00

With `Cc1cccc(-n2ncc3c(=O)[nH]c(-n4nc(C)cc4NC(=O)C4CCCC4)nc32)c1` [C-5] the “Egress and Reinvasion Assay: Mean PV ratios (19.5h:6h), Average” value (C. parvum [1]) was 0.31, the “Egress and Reinvasion Assay: Mean PV ratios (19.5h:6h), Replicate 1a” value (C. parvum [1]) was 0.20 and the “Egress and Reinvasion Assay: Mean PV ratios (19.5h:6h), Replicate 2a” value (C. parvum [1]) was 0.42. The “Asexual to sexual differentiation: Mean % DMC1 inhibition (normalized to host nuclei), Average” value [2, 4] was 52.89%, the “Asexual to sexual differentiation: Mean % DMC1 inhibition (normalized to host nuclei), Replicate 1a” value [2, 4] was 39.80% and the “Asexual to sexual differentiation: Mean % DMC1 inhibition (normalized to host nuclei), Replicate 2a” value [2, 4] was 65.99%. It also gave an EC90 (C. parvum [3]; [5]) of 4.99 µM.

For `[H]/N=C(/NCCCCC)N/N=C/c1c[nH]c2ccc(OC)cc12` [Tegaserod], the “Egress and Reinvasion Assay: Mean PV ratios (19.5h:6h), Average” value (C. parvum [1]) was 1.01, the “Egress and Reinvasion Assay: Mean PV ratios (19.5h:6h), Replicate 1a” value (C. parvum [1]) was 0.96 and the “Egress and Reinvasion Assay: Mean PV ratios (19.5h:6h), Replicate 2a” value (C. parvum [1]) was 1.06. For the same compound, the “Asexual to sexual differentiation: Mean % DMC1 inhibition (normalized to host nuclei), Average” value [2, 4] was 12.05%, the “Asexual to sexual differentiation: Mean % DMC1 inhibition (normalized to host nuclei), Replicate 1a” value [2, 4] was 41.94% and the “Asexual to sexual differentiation: Mean % DMC1 inhibition (normalized to host nuclei), Replicate 2a” value [2, 4] was -17.83%. It also gave an EC90 (C. parvum [3]; [6]) of 10.3 µM.

For `c1ccc(CNc2nc(Nc3ccccc3)nc3ccccc23)cc1` [B-1], the “Egress and Reinvasion Assay: Mean PV ratios (19.5h:6h), Average” value (C. parvum [1]) was 1.58, the “Egress and Reinvasion Assay: Mean PV ratios (19.5h:6h), Replicate 1a” value (C. parvum [1]) was 1.28 and the “Egress and Reinvasion Assay: Mean PV ratios (19.5h:6h), Replicate 2a” value (C. parvum [1]) was 1.59. For the same compound, the “Egress and Reinvasion Assay: Mean PV ratios (19.5h:6h), Replicate 3a” value (C. parvum [1]) was 1.80, the “Egress and Reinvasion Assay: Mean PV ratios (19.5h:6h), Replicate 4a” value (C. parvum [1]) was 1.65 and the “48 - 72 h DMC1 (asexual to sexual conversion): Mean % DMC1 inhibition (normalized to host nuclei)” value [2, 7] was -6.54% and 4.81%. The “48 - 72 h DMC1 (asexual to sexual conversion): Mean % DMC1 inhibition (normalized to host nuclei)” value [2, 8] was -9.41% and 15.73%, the “48 - 72 h DMC1 (asexual to sexual conversion): Mean % DMC1 inhibition (normalized to host nuclei)” value ([2]; B-1 at log[MMV006169] (µM) 0.70) was -14.15% and 22.48% and the “48 - 72 h DMC1 (asexual to sexual conversion): Mean % DMC1 inhibition (normalized to host nuclei)” value [2, 9] was 25.47% and 51.27%. The “48 - 72 h DMC1 (asexual to sexual conversion): Mean % DMC1 inhibition (normalized to host nuclei)” value ([2]; B-1 at log[MMV006169] (µM) -0.25) was 2.94% and -1.61%, the “48 - 72 h DMC1 (asexual to sexual conversion): Mean % DMC1 inhibition (normalized to host nuclei)” value ([2]; B-1 at log[MMV006169] (µM) -0.73) was 13.51% and -3.18% and the “48 - 72 h DMC1 (asexual to sexual conversion): Mean % DMC1 inhibition (normalized to host nuclei)” value ([2]; B-1 at log[MMV006169] (µM) -1.21) was 14.75% and -24.05%. The “48 - 72 h DMC1 (asexual to sexual conversion): Mean % DMC1 inhibition (normalized to host nuclei)” value ([2]; B-1 at log[MMV006169] (µM) -1.69) was 19.37% and -12.74%, the “48 - 72 h DMC1 (asexual to sexual conversion): Mean % DMC1 inhibition (normalized to host nuclei)” value ([2]; B-1 at log[MMV006169] (µM) -2.16) was 9.35% and -23.05% and the “activity in the DMC1 (sexual development) assay relative to asexual assay” value ([2]; compound added at 48 h, read at 72 h, result in words) was “less potent when used during the sexual phases of development”. For the same compound, the “Asexual to sexual differentiation: Mean % DMC1 inhibition (normalized to host nuclei), Average” value [2, 4] was 18.08%, the “Asexual to sexual differentiation: Mean % DMC1 inhibition (normalized to host nuclei), Replicate 1a” value [2, 4] was 32.96% and the “Asexual to sexual differentiation: Mean % DMC1 inhibition (normalized to host nuclei), Replicate 2a” value [2, 4] was -3.57%. The “Asexual to sexual differentiation: Mean % DMC1 inhibition (normalized to host nuclei), Replicate 3a” value [2, 4] was 17.22%, the “Asexual to sexual differentiation: Mean % DMC1 inhibition (normalized to host nuclei), Replicate 4a” value ([2]; compound at asexual EC90, 48-72 h, single replicate 4) was 25.70% and the EC50 ([2]; inhibition of DMC1 expression from 48 to 72 h, range in brackets, read-out: 48 − 72 h DMC1 (asexual to sexual conversion): EC50) was 11 µM. For the same compound, the “0 - 48 h V. villosa lectin (asexual): Mean % Inhibition (parasites)” value (C. parvum [3]; [7]) was 61.21% and 81.70%, the “0 - 48 h V. villosa lectin (asexual): Mean % Inhibition (parasites)” value (C. parvum [3]; [8]) was 87.47% and 92.32% and the “0 - 48 h V. villosa lectin (asexual): Mean % Inhibition (parasites)” value (C. parvum [3]; B-1 at log[MMV006169] (µM) 0.82) was 91.12% and 90.37%. The “0 - 48 h V. villosa lectin (asexual): Mean % Inhibition (parasites)” value (C. parvum [3]; [9]) was 88.49% and 90.28%, the “0 - 48 h V. villosa lectin (asexual): Mean % Inhibition (parasites)” value (C. parvum [3]; B-1 at log[MMV006169] (µM) -0.18) was 5.34% and 39.84% and the “0 - 48 h V. villosa lectin (asexual): Mean % Inhibition (parasites)” value (C. parvum [3]; B-1 at log[MMV006169] (µM) -0.65) was -11.45% and 6.00%. For the same compound, the “0 - 48 h V. villosa lectin (asexual): Mean % Inhibition (parasites)” value (C. parvum [3]; B-1 at log[MMV006169] (µM) -1.13) was -7.55% and -4.41%, the “0 - 48 h V. villosa lectin (asexual): Mean % Inhibition (parasites)” value (C. parvum [3]; B-1 at log[MMV006169] (µM) -1.61) was -3.87% and -15.36% and the “0 - 48 h V. villosa lectin (asexual): Mean % Inhibition (parasites)” value (C. parvum [3]; B-1 at log[MMV006169] (µM) -2.08) was -14.75% and -13.18%. The EC50 (C. parvum [3]; read-out: 0 − 48 h V. villosa lectin (asexual): EC50, asexual growth assay, first 48 h, range in brackets) was 1 µM and the EC90 (C. parvum [3]; [5]) was 2.27 µM.

`CC(=O)O[C@@]12CO[C@@H]1C[C@H](O)[C@@]1(C)C(=O)[C@H](O)C3=C(C)[C@@H](OC(=O)[C@H](O)[C@@H](NC(=O)OC(C)(C)C)c4ccccc4)C[C@@](O)([C@@H](OC(=O)c4ccccc4)[C@H]21)C3(C)C` [Docetaxel] was tested, and the “Egress and Reinvasion Assay: Mean PV ratios (19.5h:6h), Average” value (C. parvum [1]) was 1.76, the “Egress and Reinvasion Assay: Mean PV ratios (19.5h:6h), Replicate 1a” value (C. parvum [1]) was 1.96 and the “Egress and Reinvasion Assay: Mean PV ratios (19.5h:6h), Replicate 2a” value (C. parvum [1]) was 2.25. The “Egress and Reinvasion Assay: Mean PV ratios (19.5h:6h), Replicate 3a” value (C. parvum [1]) was 1.23, the “Egress and Reinvasion Assay: Mean PV ratios (19.5h:6h), Replicate 4a” value (C. parvum [1]) was 1.60 and the “Asexual to sexual differentiation: Mean % DMC1 inhibition (normalized to host nuclei), Average” value [2, 4] was 37.07%. The “Asexual to sexual differentiation: Mean % DMC1 inhibition (normalized to host nuclei), Replicate 1a” value [2, 4] was 34.13%, the “Asexual to sexual differentiation: Mean % DMC1 inhibition (normalized to host nuclei), Replicate 2a” value [2, 4] was 40.00% and the EC90 (C. parvum [3]; [6]) was 1 µM.

`Cc1cccc(-n2ncc3c(=O)[nH]c(-n4nc(C)cc4NC(=O)C4CC4)nc32)c1` [C-4] was tested, and the “Egress and Reinvasion Assay: Mean PV ratios (19.5h:6h), Average” value (C. parvum [1]) was 0.48, the “Egress and Reinvasion Assay: Mean PV ratios (19.5h:6h), Replicate 1a” value (C. parvum [1]) was 0.49 and the “Egress and Reinvasion Assay: Mean PV ratios (19.5h:6h), Replicate 2a” value (C. parvum [1]) was 0.48. For the same compound, the “Asexual to sexual differentiation: Mean % DMC1 inhibition (normalized to host nuclei), Average” value [2, 4] was 64.12%, the “Asexual to sexual differentiation: Mean % DMC1 inhibition (normalized to host nuclei), Replicate 1a” value [2, 4] was 60.65% and the “Asexual to sexual differentiation: Mean % DMC1 inhibition (normalized to host nuclei), Replicate 2a” value [2, 4] was 67.59%. The EC90 (C. parvum [3]; [5]) was 5.17 µM.

`CCOc1ccc2cc(-c3nn(CC4CCN(C)CC4)c4ncnc(N)c34)ccc2n1` [BKI-1369] was tested, and the “Egress and Reinvasion Assay: Mean PV ratios (19.5h:6h), Average” value (C. parvum [1]) was 1.41, the “Egress and Reinvasion Assay: Mean PV ratios (19.5h:6h), Replicate 1a” value (C. parvum [1]) was 1.20 and the “Egress and Reinvasion Assay: Mean PV ratios (19.5h:6h), Replicate 2a” value (C. parvum [1]) was 1.62. For the same compound, the “Asexual to sexual differentiation: Mean % DMC1 inhibition (normalized to host nuclei), Average” value [2, 4] was 41.93%, the “Asexual to sexual differentiation: Mean % DMC1 inhibition (normalized to host nuclei), Replicate 1a” value [2, 4] was -4.30% and the “Asexual to sexual differentiation: Mean % DMC1 inhibition (normalized to host nuclei), Replicate 2a” value [2, 4] was 59.32%. For the same compound, the “Asexual to sexual differentiation: Mean % DMC1 inhibition (normalized to host nuclei), Replicate 3a” value [2, 4] was 70.76% and the EC90 (C. parvum [3]; [5]) was 17.7 µM.
